Counter-ions that a name gives are not always drawn.

The IC50 is the concentration that gives 50% inhibition.

This assay concerns the target T1, recombinant human LTA4 hydrolase (rhLTA4H) (Homo sapiens, UniProt P09960).
T1 construct: made in house; host or cells: Spodoptera frugiperda (Sf-9) cells, baculovirus (pFastBac1)
T1 sequence (P09960 1-611): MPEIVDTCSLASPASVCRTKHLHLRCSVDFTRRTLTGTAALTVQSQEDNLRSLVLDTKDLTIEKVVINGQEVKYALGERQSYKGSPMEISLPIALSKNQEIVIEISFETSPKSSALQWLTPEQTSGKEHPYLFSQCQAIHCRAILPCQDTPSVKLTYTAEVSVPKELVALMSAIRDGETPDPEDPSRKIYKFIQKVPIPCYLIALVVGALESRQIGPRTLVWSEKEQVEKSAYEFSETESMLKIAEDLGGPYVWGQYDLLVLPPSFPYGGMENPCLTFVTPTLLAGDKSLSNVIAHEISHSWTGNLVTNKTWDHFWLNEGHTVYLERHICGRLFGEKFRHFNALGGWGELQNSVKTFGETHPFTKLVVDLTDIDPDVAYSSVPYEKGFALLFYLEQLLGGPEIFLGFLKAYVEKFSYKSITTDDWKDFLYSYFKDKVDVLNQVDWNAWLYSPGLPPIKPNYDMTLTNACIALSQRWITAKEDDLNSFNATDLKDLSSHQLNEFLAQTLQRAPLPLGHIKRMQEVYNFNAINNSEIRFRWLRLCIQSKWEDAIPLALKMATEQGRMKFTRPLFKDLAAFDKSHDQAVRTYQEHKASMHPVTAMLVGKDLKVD
Nature of the assay: Recombinant human LTA4 hydrolase assay for LTA4 hydrolase inhibitor activity. The note with it: rhLTA4H, LTB4 by immunoassay; single determination or average of two or more; mark after value = form tested: ′ free base, ″ hydrochloride, ^ formate; read-out: IC50. Type of assay: biochemical. Here is the method:
Assay 1: Recombinant Human LTA4 Hydrolase Assay for LTA4 Hydrolase Inhibitor Activity
Compounds of the present invention were tested for LTA4 hydrolase inhibitor activity against recombinant human LTA4 hydrolase (rhLTA4H). Vectors were prepared and used to express rhLTA4H essentially as follows: LTA4 hydrolase encoding DNA was amplified by polymerase chain reaction (PCR) using a human placental cDNA library as a template. […] The amplified 1.9 kb DNA fragment encoding LTA4 hydrolase was isolated and cloned into the pFastBac1 vector (Invitrogen). Recombinant baculovirus was generated as described by the manufacturer, and used to infect Spodoptera frugiperda (Sf-9) cells. […] The purified enzyme solution was adjusted to contain 0.29 mg/mL LTA4 hydrolase, 50 mM Tris (pH 8.0), 150 mM NaCl, 5 mM dithiothreitol, 50% glycerol, and EDTA-free Complete protease inhibitor cocktail (Roche).
LTA4 substrate was prepared from the methyl ester of LTA4 (Cayman Chemical) by treatment with 67 equiv of NaOH under nitrogen at rt for 40 min. The LTA4 substrate in its free acid form was kept frozen at −80° C. until needed. Each compound was diluted to different concentrations in assay buffer (from Assay Designs) containing 10% DMSO. A 25-μL aliquot of each compound dilution was incubated for 10 min at rt with an equal volume of assay buffer containing 10 ng of recombinant human LTA4H. The solution was then adjusted to 200 μL with assay buffer. […] Each reaction was carried out at rt for 30 min. The reaction was stopped by diluting 10 μL of the reaction mixture with 200 μL of assay buffer. LTB4 was quantified in the diluted sample by a commercially available enzyme-linked immunoassay (Cayman Chemical Co.), as recommended by the manufacturer. Positive controls, under essentially identical conditions but without addition of an inhibitor compound, and negative controls, containing all assay components except enzyme, were routinely run in each experiment. IC50 values were determined by nonlinear regression of the activity data at different compound concentrations using Graphpad Prism 4.0, one site binding competition.
The values presented here are the result of a single determination or an average of two or more determinations. Compounds that were not tested are indicated as such by a “NT” designation.
For `CCn1c(CN2CCOCC2)cc2cc(Oc3nc4ccccc4s3)ccc21` [Example 63, 2-(1-Ethyl-2-morpholin-4-ylmethyl-1H-indol-5-yloxy)-benzothiazole], the IC50 was found to be 1640 nM. With `CNC(=O)C1CCN(Cc2cc3ccc(Oc4nc5ncccc5s4)cc3o2)CC1` [Example 204, 1-[6-(Thiazolo[4,5-b]pyridin-2-yloxy)-benzofuran-2-ylmethyl]-piperidine-4-carboxylic acid methylamide], the IC50 amounted to 169 nM.

Consider `O=C(O)CN1CCN(Cc2cc3ccc(Oc4nc5ccccc5s4)cc3o2)CC1` [Example 79, {4-[6-(Benzothiazol-2-yloxy)-benzofuran-2-ylmethyl]-piperazin-1-yl}-acetic acid formate], for which the IC50 was 460 nM. `O=C1Cc2ccc(C(F)(F)F)cc2N1Cc1coc2cc(Oc3nc4ncccc4s3)ccc12` [Example 398, 1-[6-(Thiazolo[4,5-b]pyridin-2-yloxy)-benzofuran-3-ylmethyl]-6-trifluoromethyl-1,3-dihydro-indol-2-one]: the IC50 turned out to be 470 nM. As for `CC(=O)N1C[C@H]2CC[C@@H](C1)N2Cc1cc2ccc(Oc3nc4cccnc4s3)cc2o1` [Example 124, meso-1-{8-[6-(Thiazolo[5,4-b]pyridin-2-yloxy)-benzofuran-2-ylmethyl]-3,8-diaza-bicyclo[3.2.1]oct-3-yl}-ethanone], the figure is 1470 nM. Take `CN(Cc1ccccc1)C(=O)c1cc2cc(Oc3nc4ncccc4s3)ccc2o1` [Example 365, 5-(Thiazolo[4,5-b]pyridin-2-yloxy)-benzofuran-2-carboxylic acid benzyl-methyl-amide]: the IC50 is 110 nM. As for `CC(=O)N1C[C@@H]2C[C@H]1CN2Cc1cc2ccc(Oc3nc4cnccc4s3)cc2o1` [Example 203, (1S,4S)-1-{5-[6-(Thiazolo[4,5-c]pyridin-2-yloxy)-benzofuran-2-ylmethyl]-2,5-diaza-bicyclo[2.2.1]hept-2-yl}-ethanone], the figure is 2570 nM. To `O=C1CCCN1C1CCN(Cc2cc3ccc(Oc4nc5ncccc5s4)cc3o2)CC1` [Example 108, 1-{1-[6-(Thiazolo[4,5-b]pyridin-2-yloxy)-benzofuran-2-ylmethyl]-piperidin-4-yl}-pyrrolidin-2-one formate] belongs 145 nM; to `NC(=O)N1C[C@@H]2C[C@H]1CN2Cc1cc2ccc(Oc3nc4ncccc4s3)cc2o1` [Example 117, (1S,4S)-5-[6-(Thiazolo[4,5-b]pyridin-2-yloxy)-benzofuran-2-ylmethyl]-2,5-diaza-bicyclo[2.2.1]heptane-2-carboxylic acid amide], 118 nM. To `Fc1cccc2sc(Oc3ccc4oc(CN5CCCCC5)cc4c3)nc12` [Example 84, 4-Fluoro-2-(2-piperidin-1-ylmethyl-benzofuran-5-yloxy)-benzothiazole formate] belongs 236 nM; to `O=C(O)CC1CCN(Cc2cc3ccc(Oc4nc5ccccc5s4)cc3o2)CC1` [Example 78, {1-[6-(Benzothiazol-2-yloxy)-benzofuran-2-ylmethyl]-piperidin-4-yl}-acetic acid formate], 226 nM; to `O=C(C1CCN(Cc2cc3ccc(Oc4nc5ncccc5s4)cc3o2)CC1)N1CCCC1` [Example 205, Pyrrolidin-1-yl-{1-[6-(thiazolo[4,5-b]pyridin-2-yloxy)-benzofuran-2-ylmethyl]-piperidin-4-yl}-methanone], 120 nM. Regarding `CC(=O)N[C@H]1C[C@H]2CC[C@@H](C1)N2CCc1coc2cc(Oc3nc4ncccc4s3)ccc12` [Example 131, meso-endo-N-(8-{2-[6-(Thiazolo[4,5-b]pyridin-2-yloxy)-benzofuran-3-yl]-ethyl}-8-aza-bicyclo[3.2.1]oct-3-yl)acetamide], the IC50 came out at 5 nM. As for `CC(=O)NC1CCN(Cc2coc3cc(Oc4nc5nc(C)ccc5s4)ccc23)CC1` [Example 250, N-{1-[6-(5-Methyl-thiazolo[4,5-b]pyridin-2-yloxy)-benzofuran-3-ylmethyl]-piperidin-4-yl}-acetamide formate], the figure is 467 nM; as for `CC(=O)N1C[C@H]2CC[C@@H](C1)N2CCc1coc2cc(Oc3nc4ncccc4s3)ccc12` [Example 130, meso-1-(8-{2-[6-(Thiazolo[4,5-b]pyridin-2-yloxy)-benzofuran-3-yl]-ethyl}-3,8-diaza-bicyclo[3.2.1]oct-3-yl)-ethanone], 5 nM. To `c1cnc(N2CCN(Cc3coc4cc(Oc5nc6ncccc6s5)ccc34)CC2)nc1` [Example 292, 2-[3-(4-Pyrimidin-2-yl-piperazin-1-ylmethyl)-benzofuran-6-yloxy]-thiazolo[4,5-b]pyridine formate] belongs 40 nM; to `O=C(O)C1CCN(CCc2c[nH]c3ccc(Oc4nc5ccccc5s4)cc23)CC1` [Example 73, 1-{2-[5-(Benzothiazol-2-yloxy)-1H-indol-3-yl]-ethyl}-piperidine-4-carboxylic acid], 3460 nM; to `Fc1cnc2sc(Oc3ccc4c(CN5CCOCC5)c[nH]c4c3)nc2c1` [Example 60, 6-Fluoro-2-(3-morpholin-4-ylmethyl-1H-indol-6-yloxy)-thiazolo[5,4-b]pyridine], 169 nM. As for `CCN(CC)Cc1cc2cc(Oc3nc4ncccc4s3)ccc2o1` [Example 329, Diethyl-[5-(thiazolo[4,5-b]pyridin-2-yloxy)-benzofuran-2-ylmethyl]-amine formate], the figure is 54 nM. As to `CCOC(=O)CCN(C)Cc1coc2cc(Oc3nc4ncccc4s3)ccc12` [Example 334, 3-{Methyl-[6-(thiazolo[4,5-b]pyridin-2-yloxy)-benzofuran-3-ylmethyl]-amino}-propionic acid ethyl ester], the IC50 was 20 nM.

With `Cn1cc(CN2CCOCC2)c2ccc(Oc3nc4ccccc4s3)cc21` [Example 61, 2-(1-Methyl-3-morpholin-4-ylmethyl-1H-indol-6-yloxy)-benzothiazole], the half-maximal inhibitory concentration (IC50) was found to be 610 nM. As for `c1ccc2sc(Oc3ccc4cc(CN5CCCCC5)oc4c3)nc2c1` [Example 406, 2-(2-Piperidin-1-ylmethyl-benzofuran-6-yloxy)-benzothiazole], the figure is 492 nM; as for `CC(=O)N(Cc1coc2cc(Oc3nc4ncccc4s3)ccc12)[C@H]1CN2CCC1CC2` [Example 404, (R)—N-(1-Aza-bicyclo[2.2.2]oct-3-yl)-N-[6-(thiazolo[4,5-b]pyridin-2-yloxy)-benzofuran-3-ylmethyl]-acetamide formate], 2 nM; as for `CCOC(=O)C1CCN(Cc2coc3cc(Oc4nc5ccccc5s4)ccc23)CC1` [Example 223, 1-[6-(Benzothiazol-2-yloxy)-benzofuran-3-ylmethyl]-piperidine-4-carboxylic acid ethyl ester], 175 nM.

As for `c1cnc2nc(Oc3ccc4oc(CN5CC6COCC6C5)cc4c3)sc2c1` (stereo not shown) [Example 113, 2-[2-(Tetrahydro-furo[3,4-c]pyrrol-5-ylmethyl)-benzofuran-5-yloxy]-thiazolo[4,5-b]pyridine], the concentration for half-maximal inhibition (IC50) worked out at 283 nM. Turning to `c1cnc(OC2CCN(Cc3cc4cc(Oc5nc6ncccc6s5)ccc4o3)CC2)nc1` [Example 89, 2-{2-[4-(Pyrimidin-2-yloxy)-piperidin-1-ylmethyl]-benzofuran-5-yloxy}-thiazolo[4,5-b]pyridine], the IC50 worked out at 149 nM. To `CCOC(=O)C1CCN(CCc2coc3cc(Oc4nc5ccccc5s4)ccc23)CC1` [Example 149, 1-{2-[6-(Benzothiazol-2-yloxy)-benzofuran-3-yl]-ethyl}-piperidine-4-carboxylic acid ethyl ester] belongs 170 nM. Take `COC(=O)c1ccc(C(=O)NCc2coc3cc(Oc4nc5ncccc5s4)ccc23)cc1` [Example 393, N-[6-(Thiazolo[4,5-b]pyridin-2-yloxy)-benzofuran-3-ylmethyl]-terephthalamic acid methyl ester]: the IC50 came out at 100 nM.

These data come from patent US8399465B2, “Compounds with two fused bicyclic heteroaryl moieties as modulators of leukotriene A4 hydrolase” (Janssen Pharmaceutica NV, priority 2009, dated 2013).
